The target in assay [1] is T1, human TRPV1 (Homo sapiens (Human), UniProt Q8NER1). The assay is described as follows: Capsaicin Activation Assay (intracellular Ca2+, FLIPR). The conditions noted are these: recombinant HEK293 cells expressing hTRPV1, 50 nM capsaicin. Format: cell-based. In a few lines: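 Stably transfected HEK293 cells expressing human TRPV1 cDNA, plated the day before in poly-D-lysine plates. Compounds serially diluted from 10 mM DMSO stocks; intracellular Ca2+ fluorescence read on FLIPR at 1 to 5 second intervals.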

The target of assay [2] is T1, human TRPV1. In words: Acid Activation Assay (pH 5.0, intracellular Ca2+, FLIPR). The following applies: percentage of the maximal pH 5.0-induced response remaining; recombinant HEK293 hTRPV1 cells; maximum concentration tested 37.5 μM. Format: cell-based. In a few lines: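 HEK293 cells stably expressing recombinant hTRPV1, loaded with Calcium-4 dye 90-120 min at 25° C. Compounds added over a 12-point half-log range (top 37.5 μM), then pH 5.0 DPBS/MES challenge after 3 min; FLIPR peak fluorescence over baseline given as % of maximal pH 5.0 response.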

T1 sequence (Q8NER1 whole entry): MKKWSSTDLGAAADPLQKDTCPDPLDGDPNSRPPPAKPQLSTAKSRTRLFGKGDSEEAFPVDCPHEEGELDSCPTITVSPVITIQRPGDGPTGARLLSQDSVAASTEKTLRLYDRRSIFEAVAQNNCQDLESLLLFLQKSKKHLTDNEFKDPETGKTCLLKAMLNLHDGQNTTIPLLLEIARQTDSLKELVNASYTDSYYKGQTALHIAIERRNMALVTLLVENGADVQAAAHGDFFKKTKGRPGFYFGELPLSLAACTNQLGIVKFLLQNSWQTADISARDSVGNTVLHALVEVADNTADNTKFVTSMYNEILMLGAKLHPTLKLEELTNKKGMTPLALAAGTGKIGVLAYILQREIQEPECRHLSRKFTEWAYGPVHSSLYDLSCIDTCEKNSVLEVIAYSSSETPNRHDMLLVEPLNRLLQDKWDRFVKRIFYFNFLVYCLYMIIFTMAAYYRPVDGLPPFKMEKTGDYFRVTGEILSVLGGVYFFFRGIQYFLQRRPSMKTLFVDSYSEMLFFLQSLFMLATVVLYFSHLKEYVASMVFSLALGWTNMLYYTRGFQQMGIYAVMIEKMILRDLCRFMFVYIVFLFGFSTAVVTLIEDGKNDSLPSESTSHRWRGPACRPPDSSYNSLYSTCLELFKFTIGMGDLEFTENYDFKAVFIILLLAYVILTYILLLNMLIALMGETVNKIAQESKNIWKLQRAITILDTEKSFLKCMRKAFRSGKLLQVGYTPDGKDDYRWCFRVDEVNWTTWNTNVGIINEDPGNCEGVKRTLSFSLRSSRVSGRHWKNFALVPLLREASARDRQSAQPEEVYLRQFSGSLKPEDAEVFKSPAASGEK

As to `O=C(Nc1cccc2[nH]c(=O)ccc12)N[C@@H]1CC(CF)(CF)Oc2cc(Cl)ccc21` [Example 99, 1-[(4R)-7-chloro-2,2-bis(fluoromethyl)-3,4-dihydro-2H-chromen-4-yl]-3-(2-oxo-1,2-dihydroquinolin-5-yl)urea], the IC50 (in general, the concentration at which inhibition is half-maximal) at human TRPV1 [1] turned out to be 91 nM. In addition, the “human TRPV1 H^+ (max % remain)” value on human TRPV1 [2] came out at 0%.

`CC1(C)C[C@@H](NC(=O)Nc2ccc3c(c2)NC(=O)CO3)c2cccc(F)c2O1` [Example 100, 1-[(4R)-8-fluoro-2,2-dimethyl-3,4-dihydro-2H-chromen-4-yl]-3-(3-oxo-3,4-dihydro-2H-1,4-benzoxazin-6-yl)urea]: at human TRPV1 [1], the IC50 amounted to 310 nM. Moreover, the “human TRPV1 H^+ (max % remain)” value on human TRPV1 [2] came to 95%.

As for `CCC1(CC)C[C@@H](NC(=O)Nc2ccc3c(c2)NC(=O)CO3)c2cccc(F)c2O1` [Example 101, 1-[(4R)-2,2-diethyl-8-fluoro-3,4-dihydro-2H-chromen-4-yl]-3-(3-oxo-3,4-dihydro-2H-1,4-benzoxazin-6-yl)urea], the IC50 at human TRPV1 [1] is 95 nM. The “human TRPV1 H^+ (max % remain)” value on human TRPV1 [2] worked out at 105%.

For `CCC1(CC)C[C@@H](NC(=O)Nc2ccc3c(c2)NC(=O)CO3)c2ccccc2O1` [Example 102, 1-[(4R)-2,2-diethyl-3,4-dihydro-2H-chromen-4-yl]-3-(3-oxo-3,4-dihydro-2H-1,4-benzoxazin-6-yl)urea], the IC50 at human TRPV1 [1] came out at 44 nM. For the same compound, at human TRPV1 [2], the “human TRPV1 H^+ (max % remain)” value is recorded as 99%.

Take `CCC1(CC)C[C@@H](NC(=O)Nc2ccc3c(c2)NC(=O)CO3)c2ccc(C(F)(F)F)cc2O1` [Example 103, 1-[(4R)-2,2-diethyl-7-(trifluoromethyl)-3,4-dihydro-2H-chromen-4-yl]-3-(3-oxo-3,4-dihydro-2H-1,4-benzoxazin-6-yl)urea]: on human TRPV1 [1], the IC50 came to 110 nM. Further, on human TRPV1 [2], the “human TRPV1 H^+ (max % remain)” value is reported as 75%.

As for `CCC1(CC)C[C@@H](NC(=O)Nc2ccc3c(c2)NC(=O)CO3)c2ccc(Cl)cc2O1` [Example 104, 1-[(4R)-7-chloro-2,2-diethyl-3,4-dihydro-2H-chromen-4-yl]-3-(3-oxo-3,4-dihydro-2H-1,4-benzoxazin-6-yl)urea], the IC50 on human TRPV1 [1] is 200 nM. Moreover, at human TRPV1 [2], the “human TRPV1 H^+ (max % remain)” value was determined as 80%.

Consider `CCC1(CC)C[C@@H](NC(=O)Nc2ccc3c(c2)NC(=O)CO3)c2ccc(Cl)c(Cl)c2O1` [Example 105, 1-[(4R)-7,8-dichloro-2,2-diethyl-3,4-dihydro-2H-chromen-4-yl]-3-(3-oxo-3,4-dihydro-2H-1,4-benzoxazin-6-yl)urea], for which, at human TRPV1 [1], the IC50 came to 460 nM. Further, at human TRPV1 [2], the “human TRPV1 H^+ (max % remain)” value came out at 79%.

`CC1(C)C[C@@H](NC(=O)Nc2ccc3c(c2)NC(=O)CO3)c2ccc(C(F)(F)F)cc2O1` [Example 106, 1-[(4R)-2,2-dimethyl-7-(trifluoromethyl)-3,4-dihydro-2H-chromen-4-yl]-3-(3-oxo-3,4-dihydro-2H-1,4-benzoxazin-6-yl)urea]: at human TRPV1 [1], the IC50 worked out at 94 nM. The “human TRPV1 H^+ (max % remain)” value on human TRPV1 [2] was 98%.

`CCCC1(CCC)C[C@@H](NC(=O)Nc2ccc3c(c2)NC(=O)CO3)c2cc(F)ccc2O1` [Example 107, 1-[(4R)-6-fluoro-2,2-dipropyl-3,4-dihydro-2H-chromen-4-yl]-3-(3-oxo-3,4-dihydro-2H-1,4-benzoxazin-6-yl)urea]: on human TRPV1 [1], the IC50 stood at 400 nM. For the same compound, the “human TRPV1 H^+ (max % remain)” value on human TRPV1 [2] was 113%.

Take `O=C1COc2ccc(NC(=O)N[C@@H]3CC4(CCC4)Oc4ccc(F)cc43)cc2N1` [Example 108, 1-[(4R)-6-fluoro-3,4-dihydrospiro[chromene-2,1′-cyclobutan]-4-yl]-3-(3-oxo-3,4-dihydro-2H-1,4-benzoxazin-6-yl)urea]: the IC50 at human TRPV1 [1] worked out at 240 nM. In addition, the “human TRPV1 H^+ (max % remain)” value on human TRPV1 [2] was 104%.

Turning to `CCC1(CC)C[C@@H](NC(=O)Nc2ccc3c(c2)NC(=O)CO3)c2cc(F)ccc2O1` [Example 109, 1-[(4R)-2,2-diethyl-6-fluoro-3,4-dihydro-2H-chromen-4-yl]-3-(3-oxo-3,4-dihydro-2H-1,4-benzoxazin-6-yl)urea], the IC50 on human TRPV1 [1] turned out to be 130 nM. The “human TRPV1 H^+ (max % remain)” value at human TRPV1 [2] was 92%.

These data come from patent publication US8969325B2, “TRPV1 antagonists” (AbbVie Inc., priority 2011, dated 2015).
